Assay results reported in the supplement of paper PMC7394473.

How the values were obtained:
Conditions in all cases: 72 h
[1] = tested on: U2OS; assay: fractional viability (live cells / total cells); higher = less cell death
Method: (§1)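 U2OS::Nuc-mKate2 cells seeded in 96-well plates and treated with eight- to ten-point half-log or log dilutions of drug in the presence of 50 nM SYTOX Green. Live (mKate2+) and dead (SYTOX+) cells were counted by IncuCyte STACK live-cell microscopy at 72 h; biological triplicates. GR is the normalised growth-rate inhibition value (Hafner 2016; 1 = untreated growth, <0 = population shrinking). FV is live/(live+dead) cells, not normalised.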

[2] = tested on: U2OS; assay: FV IC50 (concentration giving fractional viability 0.5); higher = less potent killing
Method: (§2)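 U2OS cells treated with full dose titrations of drug; live and dead cells counted by STACK microscopy (mKate2 nuclei, SYTOX Green) at 72 h, biological triplicates. GR and FV dose responses were fitted with 4-parameter logistic models (GR lower bound -1). GRADE (0-100) is the rescaled angle of a linear fit of FV versus GR at doses with GR >= 0, giving the percentage of the response due to cell death.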

[3] = tested on: U2OS; assay: normalized growth rate inhibition value (GR) relative to untreated cells (GR value (dimensionless, 1 = untreated growth)); higher = less growth inhibition
Method: as §1

[4] = tested on: U2OS; assay: GR50 (concentration giving GR = 0.5)
Method: as §2

[5] = tested on: U2OS; assay: GRmin (fitted minimal GR value at highest effect) (GR value (dimensionless)); higher = less efficacious
Method: as §2

[6] = tested on: U2OS; assay: drug GRADE (percent of response due to cell death) (% (0-100)); higher = more death-driven response
Method: as §2

Compound | fractional viability ([1]; 0.01 µM) | fractional viability ([1]; 0.0316 µM) | fractional viability ([1]; 0.1 µM) | fractional viability ([1]; 0.316 µM) | fractional viability ([1]; 1 µM) | fractional viability ([1]; 3.16 µM) | fractional viability ([1]; 10 µM) | fractional viability ([1]; 31.6 µM) | FV IC50 [2] [µM] | normalized growth rate inhibition value ([3]; 0.01 µM) | normalized growth rate inhibition value ([3]; 0.0316 µM) | normalized growth rate inhibition value ([3]; 0.1 µM) | normalized growth rate inhibition value ([3]; 0.316 µM) | normalized growth rate inhibition value ([3]; 1 µM) | normalized growth rate inhibition value ([3]; 3.16 µM) | normalized growth rate inhibition value ([3]; 10 µM) | normalized growth rate inhibition value ([3]; 31.6 µM) | GR50 [4] [µM] | GRmin [5] | drug GRADE [6] | also measured
O=C(Nc1ccc([N+](=O)[O-])cc1Cl)c1cc(Cl)ccc1O [Nicolsamide] | 0.98 | 0.975 | 0.979 | 0.942 | 0.33 | 0.0377 | 0.0138 | 0.0218 | 0.803 | 0.975 | 1.01 | 0.934 | 0.557 | -0.319 | -0.722 | -0.81 | -0.763 | 0.347 | -0.791 | 29.4 | 
C[C@@H]1O[C@@H](O[C@H]2C[C@@H](O)[C@]3(CO)[C@H]4[C@H](O)C[C@]5(C)[C@@H](C6=CC(=O)OC6)CC[C@]5(O)[C@@H]4CC[C@]3(O)C2)[C@H](O)[C@H](O)[C@H]1O [Ouabain] | 0.977 | 0.763 | 0.249 | 0.165 | 0.149 | 0.142 | 0.161 | 0.141 | 0.0526 | 0.661 | 0.148 | -0.42 | -0.554 | -0.569 | -0.6 | -0.579 | -0.629 | 0.0164 | -0.593 | 30.9 | 
Cc1[nH]c2ccccc2c1CCNCc1ccc(/C=C/C(=O)NO)cc1 [Panobinostat] | 0.983 | 0.984 | 0.979 | 0.933 | 0.685 | 0.271 | 0.0583 | 0.00906 | 1.67 | 1.04 | 1.05 | 0.794 | 0.61 | 0.00935 | -0.45 | -0.679 | -0.831 | 0.383 | -0.832 | 55.3 | 
COC(=O)c1ccc([C@H]2c3[nH]c4ccccc4c3C[C@H](C(=O)OC)N2C(=O)CCl)cc1 [RSL3] | 0.983 | 0.976 | 0.977 | 0.974 | 0.956 | 0.566 | 0.0831 | 0.00106 | 3.55 | 1.05 | 0.96 | 0.977 | 0.999 | 0.792 | -0.133 | -0.646 | -0.916 | 1.58 | -0.866 | 54.5 | 
Cc1cc(Nc2ccc(NC(=O)c3ccc(Nc4ccnc5ccccc45)cc3)cc2)nc(N)n1 [SGI-1027] | 0.975 | 0.977 | 0.98 | 0.975 | 0.87 | 0.0651 | 0.00115 | 0.0226 | 1.62 | 0.952 | 1.02 | 0.932 | 0.948 | 0.642 | -0.651 | -0.88 | -0.717 | 1.15 | -0.799 | 37.1 | 
CNc1cc(-c2cccc(Cl)c2Cl)nc(N)n1 [TH287] | 0.973 | 0.981 | 0.976 | 0.953 | 0.787 | 0.534 | 0.383 | 0.476 | 3.64 | 0.956 | 0.997 | 0.99 | 0.786 | 0.278 | 0.0764 | -0.106 | -0.187 | 0.672 | -0.144 | 60 | 
CC(=O)O[C@H]1C(=O)[C@@]2(C)[C@H]([C@H](OC(=O)c3ccccc3)[C@]3(O)C[C@H](OC(=O)[C@H](O)[C@@H](NC(=O)c4ccccc4)c4ccccc4)C(C)=C1C3(C)C)[C@]1(OC(C)=O)CO[C@@H]1C[C@@H]2O [Taxol] |  |  |  |  | 0.44 |  |  |  | 0.577 |  |  |  |  | 0.0877 |  |  |  | 0.0907 | 0.104 | 75.6 | fractional viability ([1]; 0.000100578 µM): 0.991; fractional viability ([1]; 0.000317827 µM): 0.991; fractional viability ([1]; 0.00100433 µM): 0.991; fractional viability ([1]; 0.00317369 µM): 0.988; fractional viability ([1]; 0.0100289 µM): 0.98; fractional viability ([1]; 0.0316912 µM): 0.897; fractional viability ([1]; 0.100144 µM): 0.759; fractional viability ([1]; 0.316456 µM): 0.591; normalized growth rate inhibition value ([3]; 0.000100578 µM): 1.13; normalized growth rate inhibition value ([3]; 0.000317827 µM): 1.2; normalized growth rate inhibition value ([3]; 0.00100433 µM): 1.23; normalized growth rate inhibition value ([3]; 0.00317369 µM): 1.14; normalized growth rate inhibition value ([3]; 0.0100289 µM): 1.06; normalized growth rate inhibition value ([3]; 0.0316912 µM): 0.813; normalized growth rate inhibition value ([3]; 0.100144 µM): 0.461; normalized growth rate inhibition value ([3]; 0.316456 µM): 0.211
COc1cc2nccc(Oc3ccc(NC(=O)Nc4cc(C)on4)c(Cl)c3)c2cc1OC [Tivozanib] | 0.977 | 0.982 | 0.98 | 0.977 | 0.977 | 0.949 | 0.229 | 0.0183 | 7.34 | 0.857 | 1.17 | 1.05 | 1.03 | 0.812 | 0.681 | -0.421 | -0.823 | 3.87 | -0.878 | 7.57 | 
CC[C@@]1(O)C(=O)OCc2c1cc1n(c2=O)Cc2cc3c(CN(C)C)c(O)ccc3nc2-1 [Topotecan] |  |  |  |  |  |  | 0.444 |  | 7.66 |  |  |  |  |  |  | -0.295 |  | 0.0151 | -0.0768 | 9.92 | fractional viability ([1]; 0.00100578 µM): 0.985; fractional viability ([1]; 0.00317827 µM): 0.985; fractional viability ([1]; 0.0100433 µM): 0.978; fractional viability ([1]; 0.0317369 µM): 0.94; fractional viability ([1]; 0.100289 µM): 0.963; fractional viability ([1]; 0.316912 µM): 0.923; fractional viability ([1]; 1.00144 µM): 0.846; fractional viability ([1]; 3.16456 µM): 0.675; normalized growth rate inhibition value ([3]; 0.00100578 µM): 1.09; normalized growth rate inhibition value ([3]; 0.00317827 µM): 0.979; normalized growth rate inhibition value ([3]; 0.0100433 µM): 0.698; normalized growth rate inhibition value ([3]; 0.0317369 µM): 0.105; normalized growth rate inhibition value ([3]; 0.100289 µM): 0.14; normalized growth rate inhibition value ([3]; 0.316912 µM): 0.0543; normalized growth rate inhibition value ([3]; 1.00144 µM): -0.044; normalized growth rate inhibition value ([3]; 3.16456 µM): -0.147
CC(C)[C@]12O[C@H]1[C@@H]1O[C@]13[C@]1(O[C@H]1C[C@H]1C4=C(CC[C@@]13C)C(=O)OC4)[C@@H]2O [Triptolide] |  | 0.18 |  | 0.155 |  | 0.154 |  | 0.159 | 0.0112 |  | -0.197 |  | -0.249 |  | -0.267 |  | -0.258 | 0.00421 | -0.262 | 8 | fractional viability ([1]; 3.16 pM): 0.981; fractional viability ([1]; 31.6 pM): 0.979; fractional viability ([1]; 0.000316 µM): 0.979; fractional viability ([1]; 0.00316 µM): 0.957; normalized growth rate inhibition value ([3]; 3.16 pM): 1.03; normalized growth rate inhibition value ([3]; 31.6 pM): 1.01; normalized growth rate inhibition value ([3]; 0.000316 µM): 0.928; normalized growth rate inhibition value ([3]; 0.00316 µM): 0.633
CC(C)[C@@H]1NC(=O)[C@H](C)OC(=O)[C@@H](C(C)C)NC(=O)[C@@H](C(C)C)OC(=O)[C@H](C(C)C)NC(=O)[C@H](C)OC(=O)[C@@H](C(C)C)NC(=O)[C@@H](C(C)C)OC(=O)[C@H](C(C)C)NC(=O)[C@H](C)OC(=O)[C@@H](C(C)C)NC(=O)[C@@H](C(C)C)OC1=O [Valinomycin] |  |  |  |  |  |  | 0.384 |  | 4.06 |  |  |  |  |  |  | -0.225 |  | 0.0108 | -0.0918 | 34.4 | fractional viability ([1]; 0.00100578 µM): 0.993; fractional viability ([1]; 0.00317827 µM): 0.991; fractional viability ([1]; 0.0100433 µM): 0.874; fractional viability ([1]; 0.0317369 µM): 0.933; fractional viability ([1]; 0.100289 µM): 0.685; fractional viability ([1]; 0.316912 µM): 0.737; fractional viability ([1]; 1.00144 µM): 0.675; fractional viability ([1]; 3.16456 µM): 0.553; normalized growth rate inhibition value ([3]; 0.00100578 µM): 1.02; normalized growth rate inhibition value ([3]; 0.00317827 µM): 0.986; normalized growth rate inhibition value ([3]; 0.0100433 µM): 0.171; normalized growth rate inhibition value ([3]; 0.0317369 µM): 0.472; normalized growth rate inhibition value ([3]; 0.100289 µM): -0.0547; normalized growth rate inhibition value ([3]; 0.316912 µM): 0.0438; normalized growth rate inhibition value ([3]; 1.00144 µM): -0.0358; normalized growth rate inhibition value ([3]; 3.16456 µM): -0.0823
O=C(CCCCCCC(=O)Nc1ccccc1)NO [Vorinostat] |  |  |  |  |  |  | 0.091 |  | 0.765 |  |  |  |  |  |  | -0.591 |  | 0.274 | -0.601 | 28 | fractional viability ([1]; 0.00100578 µM): 0.992; fractional viability ([1]; 0.00317827 µM): 0.99; fractional viability ([1]; 0.0100433 µM): 0.991; fractional viability ([1]; 0.0317369 µM): 0.985; fractional viability ([1]; 0.100289 µM): 0.973; fractional viability ([1]; 0.316912 µM): 0.875; fractional viability ([1]; 1.00144 µM): 0.365; fractional viability ([1]; 3.16456 µM): 0.16; normalized growth rate inhibition value ([3]; 0.00100578 µM): 0.932; normalized growth rate inhibition value ([3]; 0.00317827 µM): 1.11; normalized growth rate inhibition value ([3]; 0.0100433 µM): 0.89; normalized growth rate inhibition value ([3]; 0.0317369 µM): 0.906; normalized growth rate inhibition value ([3]; 0.100289 µM): 0.901; normalized growth rate inhibition value ([3]; 0.316912 µM): 0.396; normalized growth rate inhibition value ([3]; 1.00144 µM): -0.201; normalized growth rate inhibition value ([3]; 3.16456 µM): -0.515
COCC[n+]1c2c(n(Cc3cnccn3)c1C)C(=O)c1ccccc1C2=O [YM155] | 0.852 | 0.59 | 0.0412 | 0.00681 | 0.00318 | 0.00039 | 0 | 0.0019 | 0.0364 | 0.107 | 0.0141 | -0.788 | -0.79 | -0.94 | -0.882 | -0.967 | -0.859 | 0.00769 | -0.913 | 44.1 | fractional viability ([1]; 3.16 pM): 0.981; fractional viability ([1]; 31.6 pM): 0.981; fractional viability ([1]; 0.000316 µM): 0.983; fractional viability ([1]; 0.00316 µM): 0.962; normalized growth rate inhibition value ([3]; 3.16 pM): 0.943; normalized growth rate inhibition value ([3]; 31.6 pM): 1; normalized growth rate inhibition value ([3]; 0.000316 µM): 1.02; normalized growth rate inhibition value ([3]; 0.00316 µM): 0.777
